The source of these data is publication PMC9585585, “Discovery of Small-Molecule Allosteric Inhibitors of PfATC as Antimalarials” (Journal of the American Chemical Society, 2022).

One test relates to P. falciparum 3D7. Kind of test: Growth-inhibition assay of P. falciparum (SYBR Green I). Conditions: P. falciparum 3D7, 96 h; read-out: EC50 against blood stage 3D7 cultures. The format is cell-based, Plasmodium falciparum. The procedure:
488Cell culture and growth-inhibition assay of P. falciparum. P. falciparum 3D7 parasites
489(Wellcome Trust Dundee) were maintained in continuous culture at 37 °C and an atmosphere
490consisting of 90% N 2, 5% O2, and 5% CO2 as described previously 30 with modifications.31
491Parasites were maintained in 25 mM 4-(2-hydroxyethyl)-1-piperazineethanesulfonic acid (HEPES)
492and 11.9 mM sodium bicarbonate buffered RPMI 1640 medium supplemented with D-glucose
493(11 mM), hypoxanthine, AlbuMAX-I (0.5% w/v), and 10 µg/mL gentamicin. 0+ blood was
494provided by “Hospital Novo Atibaia” (Brazil) in agreement with the ethics committee at ICB-USP.
495Compounds were tested for their inhibitory effect against P. falciparum 3D7 conducting SYBR
496Green I (Invitrogen) drug assays as reported. 32, 33 Briefly, two-fold serial dilutions of compounds
497were prepared in 96-well plates starting from 100 and 20 µM in technical triplicate and incubated
498for 96 h under normal growth conditions using an initial parasitemia of 0.5% and a hematocrit of
4992% in a volume of 100 µL per well. Parasite proliferation was measured by quantifying DNA via
500SYBR Green I emitted fluorescence in the wells after addition of 100 µL lysis buffer supplemented
501with SYBR Green I (0.02% v/v) and incubation for 1 h at room temperature in the dark.
502Fluorescence was quantified using a CLARIOstar plate reader (BMG Labtech, Germany) at
503excitation and emission wavelength bands of 485 (± 9) and 530 (± 12) nm, respectively. Focal and
504gain adjustment was performed using the negative controls (highest expected fluorescence signal).
505Data was acquired via the CLARIOstar (V5.20) and MARS software, manually normalized, and
506plotted using the nonlinear regression curve fit implemented in GraphPad Prism as described below
507in more detail. Non-treated parasites, highest solvent concentration on parasites, and highest drug
508concentration in medium were used as controls for maximal growth, solvent control, and native
509drug fluorescence, respectively.
511Nonlinear regression fit and analysis of dose-response drug assays. Nonlinear regression as
512implemented in GraphPad Prism 8.4.3 (log(inhibitor) vs. response – Variable slope (four
513parameters)) was used to fit the measured data to interpolate the IC 50 value from the curve. No
514specific model was applied. Data was pre-processed by min-max-scaling according to the
517where y is the fluorescence signal in each well, y minimum the background fluorescence, and ymaximum
518the highest measured fluorescence signal in the untreated wells. Drug concentrations (in µM) were
519transformed to the log(10)of the values. Means of each independent experiment were plotted as
520individual values, and the SD of the mean from the means shown as error bars. The test for
521homoscedasticity was performed to confirm if no weighting of values was appropriate.

The target of the next test is T1, HsATC (Homo sapiens, UniProt P27708).
T1 construct: ATCase domain of CAD; made in house; host or cells: E. coli BL21 star
T1 sequence (P27708 1918-2225 limits assumed): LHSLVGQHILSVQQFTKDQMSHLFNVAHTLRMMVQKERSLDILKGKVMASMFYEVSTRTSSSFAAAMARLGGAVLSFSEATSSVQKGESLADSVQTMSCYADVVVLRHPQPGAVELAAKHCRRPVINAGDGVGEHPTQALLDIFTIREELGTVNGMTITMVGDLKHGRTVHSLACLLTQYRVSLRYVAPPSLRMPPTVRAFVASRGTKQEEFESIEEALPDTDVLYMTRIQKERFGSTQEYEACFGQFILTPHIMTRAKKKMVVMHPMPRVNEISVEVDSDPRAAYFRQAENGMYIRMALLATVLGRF
The test can be described thus: HsATC activity assay. The format is biochemical. Particulars: in vitro activity assay, 10 mM L-aspartate, 5 mM carbamoyl phosphate; read-out: HsATC IC50. The procedure: 417100μL of stop mix (two volumes of Antipyrine (26.5 mM 2,3-Dimethyl-1-phenyl-3-pyrazolin-5-
418one in 50% (v/v) sulfuric acid) and one volume of 2,3-Butanedione monoxime (80 mM 2,3-
419Butanedione monoxime in 5% (v/v) acetic acid). After plates were sealed with transparent sealing
(§1) 420tape to prevent evaporation and incubated overnight in the dark place at room temperature. After
421incubation, the plates were heated at 95 °C for 15 min in dark place, and kept for 30 min before
422measuring at 466 nm suing a Synergy H1 Hybrid Reader (BioTek). Analyses were performed using
423Microsoft Excel and Graph Pad Prism.
424HsATC activity assay. The enzymatic assay was performed as described herein above for
425enzymatic assay of PfATC with minor modifications. Briefly, the reaction was carried out at room
426temperature in a total volume of 150 μl of 10 mM L-aspartate and 5 mM carbamoyl phosphate
427saturated substrate solution in 50 mM Tris-Acetate buffer pH 8.3. hsATC was pre-incubated with
428inhibitor and L-Asp for 10 min at room temperature on a shaker. The reaction was initiated by
429adding CP and stopped after 5 min with […] color mix. Then the plate was covered by sealing
(§2) 430tape and kept in dark place at room temperature and then heated to 95 °C for 15min in dark and kept
431the plate in the dark for another 30 min before measuring the absorbance at 466 nm suing a Synergy
432H1 Hybrid Reader (BioTek). […]

For a further test, the target named is PfATC (Plasmodium falciparum, UniProt A0A5K1K910). The test can be described thus: biochemical. Particulars: in vitro activity assay, PfATC 50 nM, 2 mM CP, 1 mM aspartate; read-out: PfATC IC50. The procedure:
Following washing with Lysis buffer
Excess imidazole was removed and the His-tag was cleaved
400Then, the sample was loaded onto a 5 ml HiTrap SP HP column (GE Healthcare, USA) and
410PfATC activity assay. Enzymatic reactions were performed in a total volume of 150 µL in 50 mM
Small-molecule dose-response curves were
The reactions were initiated by adding CP and quenched after 10 min with
After plates were sealed with transparent sealing
as §1
Analyses were performed using
The enzymatic assay was performed as described herein above for
Briefly, the reaction was carried out at room
The reaction was initiated by
Then the plate was covered by sealing
as §2

The next test deals with malarial parasite. Also on record: method as in PMID 32129597. Particulars: cited from earlier work.

Sequence of PfATC (A0A5K1K910 entry or part of it): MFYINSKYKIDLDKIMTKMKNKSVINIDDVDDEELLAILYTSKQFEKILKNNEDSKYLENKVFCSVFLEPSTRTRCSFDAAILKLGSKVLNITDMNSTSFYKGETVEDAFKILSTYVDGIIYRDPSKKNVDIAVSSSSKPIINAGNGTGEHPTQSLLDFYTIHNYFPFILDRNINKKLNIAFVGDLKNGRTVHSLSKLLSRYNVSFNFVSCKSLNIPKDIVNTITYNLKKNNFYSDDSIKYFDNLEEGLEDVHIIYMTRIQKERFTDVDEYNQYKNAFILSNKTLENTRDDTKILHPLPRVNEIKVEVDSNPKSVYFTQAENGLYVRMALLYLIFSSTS

In the case of `CC(C)(C)OC(=O)Nc1sc(-c2ccccc2)cc1C(=O)NCCc1ccc(C(F)(F)F)cc1` [BDA-21], the EC50 in the test on P. falciparum 3D7 stood at 2420 nM. For the same compound, the figures for the IC50 at HsATC and at PfATC were 620 nM and 554 nM, respectively.
Take `O=C(O)C[C@H](NC(=O)CP(=O)(O)O)C(=O)O` [PALA, N-(phosphonoacetyl)-L-aspartate]: in the test with malarial parasite, the “inhibitory effects in ex vivo experiments” value is on record as “no inhibitory effects”.
Take `CC(C)CCNc1sc(-c2ccccc2)cc1C(=O)NCCc1ccc(O)cc1` [BDA-19]: the EC50 in the test with P. falciparum 3D7 turned out to be 2330 nM. Also, the figures for the IC50 at HsATC and at PfATC were 678 nM and 4070 nM, respectively.
As to `CC(C)(C)OC(=O)Nc1sc(-c2ccccc2)cc1C(=O)NCCc1ccc(Br)cc1` [BDA-22], the EC50 in the test with P. falciparum 3D7 is 2890 nM. Further, the IC50 at HsATC was 573 nM; at PfATC, 473 nM.
Regarding `CC(C)(C)OC(=O)Nc1sc(-c2ccccc2)cc1C(=O)NCC(O)c1ccccc1` (stereo not shown) [BDA-16], the EC50 in the test with P. falciparum 3D7 was determined as 1960 nM. Further, the IC50 came out at 870 nM on HsATC and 6080 nM on PfATC.
As for `COc1ccccc1CCNC(=O)c1cc(-c2ccccc2)sc1NC(=O)OC(C)(C)C` [BDA-18], in the test with P. falciparum 3D7, the EC50 amounted to 1850 nM. For the same compound, the IC50 on HsATC stood at 259 nM; at PfATC, 1330 nM.

Usually EC50 stands for the midpoint of the concentration-response curve. As a reminder, the IC50 is the concentration at which inhibition is half-maximal.
